Experimental data published in PMC3097502, “Antitrypanosomal and Cytotoxic Activities of 22-Hydroxyclerosterol, a New Sterol from Allexis cauliflora (Violaceae)” (Scientia Pharmaceutica, 2011).

Tests used:
[1] = tested on: Trypanosoma brucei brucei bloodstream form (strain 427); assay: Antitrypanosomal assay (LILIT, Alamar Blue, 72 h) on bloodstream forms; format: cell-based; conditions: for ED50, growth of Trypanosoma brucei (strain 427): bloodstream form, 72 h incubation, Alamar Blue
Protocol: (§1) Trypanosoma brucei brucei (strain 427) bloodstream forms were cultured in HMI-9 medium containing 10% heat-inactivated. The mammalian fibroblast cell line MRC-5 was grown in DMEM (Gibco) supplemented with 10% heat-inactivated FBS and extra glutamine. Cells were grown at 37 °C in humidified incubators in an atmosphere of 5% CO2 [13].
(§2) The assay performed, the long incubation low inoculation test (LITIT), was previously described by Räz et al., 1997 [14] with minor modifications by Baltz et al., 1985 [15]. To evaluate the selectivity of the in vitro antitrypanosomal activity, in vitro cytotoxicity tests were also performed. The same general method was used in order to facilitate the comparison.
(§3) The compounds were initially dissolved in DMSO at a concentration of 20 mg/ml and diluted with the medium. Series of dilution were done in 96-well plates; each dilution was tested in duplicate. Cells in suspension were thereafter added to each well at a density such as, after 72 h of incubation, in control wells the culture reached the end of logarithmic growth phase (T. brucei), or adhesive cells have formed a confluent monocellular film (mammal cells MRC-5). The highest concentration of DMSO was 0.5%. After 72 h of incubation, Alamar Blue, a marker of cell viability, was added in each well and fluorescence was quantified after a total incubation time of 76 h at an excitation wavelength of 530 nm and at an emission wavelength of 590 nm. ED50 values were calculated by linear interpolation. Assays with commercial drugs were also carried out in order to have reference values. All results represent average values obtained in at least three independent experiments, each experiment comprising a duplicate set of tests.

[2] = tested on: MRC-5 mammalian cells (fibroblasts); assay: Cytotoxicity assay (Alamar Blue, 72 h) on mammalian fibroblasts; format: cell-based; conditions: 72 h incubation
Protocol: as §1, §2, §3

PGI of T. brucei = PGI of T. brucei (Trypanosoma brucei brucei, UniProt P13377); assay: Enzymatic inhibition of glycolytic enzyme PGI (T. brucei); format: biochemical; conditions: for Ki’ PGI of T. brucei: binding to enzyme-substrate (F6P/PGI) complex
PGI of T. brucei, sequence (P13377 whole entry): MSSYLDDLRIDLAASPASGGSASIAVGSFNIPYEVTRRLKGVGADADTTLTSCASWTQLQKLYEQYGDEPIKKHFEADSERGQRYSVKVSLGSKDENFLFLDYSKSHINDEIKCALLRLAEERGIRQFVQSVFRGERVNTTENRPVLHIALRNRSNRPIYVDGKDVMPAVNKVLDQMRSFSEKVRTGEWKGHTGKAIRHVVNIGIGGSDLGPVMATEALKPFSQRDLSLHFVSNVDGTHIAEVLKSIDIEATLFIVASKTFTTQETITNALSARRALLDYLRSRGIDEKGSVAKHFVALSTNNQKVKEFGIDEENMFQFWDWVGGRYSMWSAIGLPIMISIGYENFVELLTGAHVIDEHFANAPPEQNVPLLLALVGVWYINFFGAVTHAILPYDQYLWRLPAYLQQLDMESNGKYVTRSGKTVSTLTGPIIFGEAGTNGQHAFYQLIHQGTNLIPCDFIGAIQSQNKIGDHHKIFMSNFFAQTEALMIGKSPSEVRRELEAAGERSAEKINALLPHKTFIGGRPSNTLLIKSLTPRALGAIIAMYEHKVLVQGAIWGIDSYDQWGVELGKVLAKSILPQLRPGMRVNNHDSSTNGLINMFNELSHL

GAPDH of T. brucei = GAPDH of T. brucei (Trypanosoma brucei brucei, UniProt P22512); assay: Enzymatic inhibition of GAPDH (T. brucei); format: biochemical
GAPDH of T. brucei, sequence (P22512 whole entry): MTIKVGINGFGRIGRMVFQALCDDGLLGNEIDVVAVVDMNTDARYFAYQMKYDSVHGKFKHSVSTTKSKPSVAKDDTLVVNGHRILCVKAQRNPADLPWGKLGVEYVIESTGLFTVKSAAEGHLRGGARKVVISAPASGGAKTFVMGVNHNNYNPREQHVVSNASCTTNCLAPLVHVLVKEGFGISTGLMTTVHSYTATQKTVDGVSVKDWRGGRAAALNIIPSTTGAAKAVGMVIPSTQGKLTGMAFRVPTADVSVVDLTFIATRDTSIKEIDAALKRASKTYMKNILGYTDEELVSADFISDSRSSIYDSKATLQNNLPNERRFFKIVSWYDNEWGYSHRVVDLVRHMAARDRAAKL

[3] = biological target: PyK of Leishmania mexicana (Leishmania mexicana, UniProt Q27686); assay: Enzymatic inhibition of PyK (L. mexicana); format: biochemical
PyK of Leishmania mexicana, sequence (Q27686 whole entry): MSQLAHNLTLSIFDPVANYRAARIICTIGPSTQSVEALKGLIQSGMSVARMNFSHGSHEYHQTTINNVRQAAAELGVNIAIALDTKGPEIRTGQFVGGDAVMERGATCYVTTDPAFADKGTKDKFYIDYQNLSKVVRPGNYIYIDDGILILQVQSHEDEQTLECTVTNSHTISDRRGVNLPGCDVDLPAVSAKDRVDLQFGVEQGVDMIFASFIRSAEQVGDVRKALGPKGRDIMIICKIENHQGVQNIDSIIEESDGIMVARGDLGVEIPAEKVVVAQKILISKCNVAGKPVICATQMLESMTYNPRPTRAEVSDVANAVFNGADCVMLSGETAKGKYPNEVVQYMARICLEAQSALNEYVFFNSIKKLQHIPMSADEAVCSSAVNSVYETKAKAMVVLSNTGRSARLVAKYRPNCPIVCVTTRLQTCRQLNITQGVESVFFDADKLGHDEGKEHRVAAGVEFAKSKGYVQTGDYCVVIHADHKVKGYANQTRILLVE

[4] = biological target: rabbit muscle pyruvate kinase (PyK) (Oryctolagus cuniculus, UniProt P11974); assay: Enzymatic inhibition of PyK (rabbit muscle); format: biochemical
rabbit muscle pyruvate kinase (PyK), sequence (P11974 whole entry): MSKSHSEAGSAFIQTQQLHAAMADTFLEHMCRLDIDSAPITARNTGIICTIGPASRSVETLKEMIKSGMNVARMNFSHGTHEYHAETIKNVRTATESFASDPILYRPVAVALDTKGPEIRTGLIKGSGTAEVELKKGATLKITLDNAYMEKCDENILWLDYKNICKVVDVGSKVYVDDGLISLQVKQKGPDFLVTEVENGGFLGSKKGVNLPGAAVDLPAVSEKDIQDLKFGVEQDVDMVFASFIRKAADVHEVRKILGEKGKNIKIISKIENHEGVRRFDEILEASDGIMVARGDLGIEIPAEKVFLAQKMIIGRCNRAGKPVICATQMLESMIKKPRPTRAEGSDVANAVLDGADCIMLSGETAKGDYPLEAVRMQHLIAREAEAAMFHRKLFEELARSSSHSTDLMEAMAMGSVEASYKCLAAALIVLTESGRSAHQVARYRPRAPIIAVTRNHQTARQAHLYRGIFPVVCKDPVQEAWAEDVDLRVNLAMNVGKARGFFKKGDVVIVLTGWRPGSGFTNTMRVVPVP

PGI Rabbit muscle = biological target: T1, PGI Rabbit muscle (Oryctolagus cuniculus, UniProt Q9N1E2); assay: Enzymatic inhibition of PGI (rabbit muscle); format: biochemical; conditions: n.i. = no inhibition observed at 50 μM
T1 construct: Rabbit muscle; from tissue; host or cells: rabbit muscle
Source text: Tab. 3. Enzymatic inhibition (IC50, μM) | column: PGI / Rabbit muscle

GAPDH Rabbit muscle = biological target: T2, GAPDH Rabbit muscle (Oryctolagus cuniculus, UniProt P46406); assay: Enzymatic inhibition of GAPDH (rabbit muscle); format: biochemical; conditions: n.i. = no inhibition observed at 50 μM
T2 construct: Rabbit muscle; from tissue; host or cells: rabbit muscle
T2 sequence (P46406 whole entry): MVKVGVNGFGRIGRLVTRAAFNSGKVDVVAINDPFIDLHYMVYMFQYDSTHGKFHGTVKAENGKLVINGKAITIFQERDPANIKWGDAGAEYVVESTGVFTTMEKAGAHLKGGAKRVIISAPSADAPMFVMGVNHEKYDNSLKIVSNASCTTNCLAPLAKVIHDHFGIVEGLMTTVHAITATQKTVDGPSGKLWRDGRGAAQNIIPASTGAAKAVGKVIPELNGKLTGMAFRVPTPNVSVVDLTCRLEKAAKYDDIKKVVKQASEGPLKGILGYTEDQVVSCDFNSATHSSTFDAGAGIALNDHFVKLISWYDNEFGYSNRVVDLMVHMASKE
Source text: Tab. 3. Enzymatic inhibition (IC50, μM) | column: GAPDH / Rabbit muscle

[5] = tested on: Trypanosoma brucei brucei bloodstream form (strain 427); design: method as in PMID 17637068; conditions: cited from earlier work
[6] = tested on: MRC-5 mammalian cells (fibroblasts); design: method as in PMID 17637068; conditions: cited from earlier work
[7] = n.i. = no inhibition observed at 50 μM

C=C(C)[C@@H](CC)CC(O)[C@@H](C)[C@H]1CC[C@H]2[C@@H]3CC=C4C[C@@H](O)CC[C@]4(C)[C@H]3CC[C@]12C (stereo partly drawn) [Compound 1, (3β,24S)-Stigmasta-5,25-diene-3,22-diol]
ED50, growth of Trypanosoma brucei (strain 427) [1]: 1.56 µM | fold more potent than compound 2 (ED50, T. brucei brucei growth) ([1]; ratio of ED50 values): 86 fold | ED50, Mammalian cells (MRC-5 fibroblasts) [2]: 1.12 µM | IC50 (PGI of T. brucei): 30 ± 10 µM | affinity for F6P/PGI complex relative to affinity of natural substrate (F6P) for PGI (PGI of T. brucei; kinetic studies): 76 fold | type of inhibition of PGI of T. brucei (PGI of T. brucei; kinetic studies): uncompetitive inhibitor | Ki’ PGI of T. brucei (PGI of T. brucei; kinetic studies): 3 ± 1 µM | IC50 (GAPDH of T. brucei): 30 ± 10 µM | IC50 [3]: 30 ± 5 µM | Ki [3]: 24 ± 5 µM | Ki’ PyK of Leishmania mexicana ([3]; kinetic studies): 65 ± 10 µM | type of inhibition of PyK of Leishmania mexicana ([3]; kinetic studies): mixed inhibitor | Ki’ PyK of rabbit muscle ([4]; kinetic studies): 26 ± 3 µM | type of inhibition of PyK of rabbit muscle ([4]; kinetic studies): uncompetitive inhibitor | melting point: 166 to 168 °C

C=C(C)[C@@H](CC)CC[C@@H](C)[C@H]1CC[C@H]2[C@@H]3CC=C4C[C@@H](O)CC[C@]4(C)[C@H]3CC[C@]12C [Compound 2, (3β,24S)-Stigmasta-5,25-dien-3-ol]
ED50, growth of Trypanosoma brucei (strain 427) [1]: 134.34 µM | ED50, Mammalian cells (MRC-5 fibroblasts) [2]: no effect | ED50, Mammalian cells (MRC-5 fibroblasts) ([2]; listed as compound 2): non toxic on mammalian cells | IC50 (PGI of T. brucei): 45 ± 10 µM | Ki (PGI of T. brucei): 10 ± 2 µM | type of inhibition of PGI of T. brucei (PGI of T. brucei; kinetic studies): mixed inhibitor | Ki’ PGI of T. brucei (PGI of T. brucei; kinetic studies): 68 ± 5 µM | IC50 PGI Rabbit muscle (PGI Rabbit muscle): n.i. | IC50 GAPDH T. brucei (GAPDH of T. brucei; [7]): n.i. | IC50 GAPDH Rabbit muscle (GAPDH Rabbit muscle): n.i. | IC50 PyK L. mexicana [3, 7]: n.i. | IC50 PyK Rabbit muscle [4, 7]: n.i. | antitrypanosomal activity (known) [5]: weak antitrypanosomal activity | toxicity to mammalian cells (known) [6]: non toxic to mammalian cells
